Laboratory results published in PMC8962522, “Direct interaction of TrkA/CD44v3 is essential for NGF-promoted aggressiveness of breast cancer cells” (Journal of Experimental & Clinical Cancer Research : CR, 2022).

Test system: MDA-MB-231 cells
Assay: Clonogenicity assay, MDA-MB-231
Format: cell-based
Conditions: peptide 50 ng/mL, 2% FBS; versus control cells or scramble peptide; siCD44v3: 10 days after siRNA transfection
Experimental: The clonogenicity assay was performed to assess cell survival. MDA-MB-231 cells (250 cells/mL) were seeded into 6 plate wells (2% FBS medium; 2 mL/well). When the cells attached (within 3 h), they were treated with the peptide (scramble or P4; 50 ng/mL) or no peptide (control) and incubated for 24 h. The next day, a second-round treatment was performed. Three days later, the medium was changed, and the cells were incubated for another 5 days. After 10 days of culture, the medium was removed, and the cells were washed twice (PBS 1×), fixed (4% PAF for 30 min at RT), colored (violet crystal 2%; 30 min; RT) and washed twice (distilled water). Representative pictures of one well were taken, and the colonies were counted.
Therefore, in this study, we assessed TrkA binding to CD44v3 in MDA-MB-231 cells, which were used as TNBC model cells. […] Therefore, we evaluated the physiological consequences of TrkA/CD44v3 complex dissociation induced by CD44v3 mimetic peptide 4 on MDA-MB-231 cell phenotypes (Fig. 4). […] We first determined the effect of CD44v3 on the length-to-width (l/w) ratio of the cells (elongation factor) (Fig. 4C-E). […]
Fig. 4 CD44v3 mimetic peptide 4 inhibits MDA-MB-231 breast cancer cell growth and migration/invasion. Clonogenic MDA-MB-231 cell growth was measured after 10 days in the presence of a scramble peptide (SP) or CD44v3 mimetic peptide (P4) (A, B). […]

With “IDDDEDFISST [Peptide 4, mimetic peptide 4 (…) corresponding to the C-terminal region of CD44v3]” the “effect on clonogenic growth of MDA-MB-231 cells” value was “reduced the proportion of MDA-MB-231 colony forming units by two-thirds”.
